In a melting point compilation (Tetko et al.; mined from patent text by program, amines drawn as free bases though some values may be those of a salt) one finds melting point data, which are given here for 37 compounds.

The melting point is the temperature of the solid-liquid transition.

On to `COc1ccc(C(C)(C)CCC(=O)O)cc1NC(=O)C[C@H]1O[C@H](c2cccc(OC)c2OC)c2cc(Cl)ccc2N(CC(C)(C)CO)C1=O`, for which the melting point was in the range of 173 to 174 °C.

As to `COC(=O)CCc1cnc(C)s1`, the melting point stood at 115 °C.

Compound `CC(C)Oc1ccc(Cc2ccc(NC3=NCCN3)cc2)s1` returned a melting point of 134 to 135 °C.

Consider `CC(C)(O)C#Cc1ccc(Br)cc1`, for which the melting point was found to be 62 °C.

For `Cn1c(=O)c(-c2ccc(Cl)cc2Cl)cc2c3cc(-c4nc(CC(=O)O)cs4)ccc3n(C)c21`, the melting point lay within 234 to 239 °C.

As to `Cn1c(C(F)(F)F)cc(=O)n(-c2c(F)cc(Cl)c3cc(C=O)oc23)c1=O`, the melting point is 180 to 183 °C.

The compound `CCOC(=O)CCc1cc2cc(O)ccc2s1` displayed a melting point of 111 to 113 °C.

Compound `C=Cc1ncc2c(c1COC)c1c(OCc3ccccc3)cccc1n2S(=O)(=O)c1ccc(C)cc1` returned a melting point of 141 to 143 °C.

The compound `CCCCCCCCCCCCCCCCCCNC(=O)OCC(CN(C(C)=O)S(=O)(=O)CCCI)NC(C)=O` (configuration not stated) gave a melting point of 118 to 119 °C.

In turn, `NS(=O)(=O)c1cc(OC(F)F)ccc1OC(F)F` had a melting point of 73 to 74 °C.

In turn, `CC1(C#CC2(C(F)(F)F)C=NC(=O)Nc3ccc(Cl)cc32)CC1` (configuration not stated) had a melting point of 196 to 198 °C.

Compound `COc1ccc(-c2cc(CO)c(=O)n(CC3CCCC3)n2)cc1F` showed a melting point of 130 to 133 °C.

`Cc1ccc(-n2c(=O)n(OCc3ccccc3)c(=O)c3cc(F)c(Cl)nc32)cc1` came in with a melting point of 218 to 219 °C.

Compound `COc1cc(Cl)ccc1CBr` displayed a melting point of 42 to 45 °C.

`Cc1nc(N)nc(N)c1N1CCN(c2ccc(C(F)(F)F)cc2)CC1`: the melting point was in the range of 255 to 258 °C.

In turn, `OC(CSCc1ccc(Cl)cc1)C12CC3CC(CC(C3)C1)C2` (configuration not stated) came in with a melting point of 74 to 79 °C.

As to `COc1cc(C(=O)c2ccc(OC)c(OC)c2OC)cc(OC)c1OC`, the melting point lay within 125 to 126 °C.

`Cn1c(=O)c2c(ncn2CCCCC#N)n(C)c1=O` registered a melting point of 118 to 120 °C.

Take `O=C(O)C(O)c1ccccc1[N+](=O)[O-]` (configuration not stated): the melting point was 137 to 139 °C.

In turn, `COC(=O)c1snnc1C1CC1` came in with a melting point of 47 °C.

Compound `O=C(O)Cc1c(C(=O)c2ccc3c(c2)CCO3)[nH]c2cc(Cl)ccc12` showed a melting point of 217 °C.

On to `CC(C)NC(=O)N1CCC(CN2C(=O)C3(COc4cc5c(cc43)CCO5)c3ccccc32)C1` (configuration not stated), for which the melting point was in the range of 107 to 115 °C.

In turn, `CNc1nc(-c2cccc(NC(=O)c3ccc(OC)cc3)c2)c2cc(OC)c(OC)cc2n1` came in with a melting point of 219 to 221 °C.

Consider `CCOCC(=O)Nc1occ(C(C)(C)C)c1C#N`, for which the melting point is 98 °C.

For the compound `CCN(CC)C(=O)C(C)(C)C(=O)O`, the melting point lay in the range of 110 to 112 °C.

In turn, `CC(C)(C)OC(=O)NCCc1c[nH]c2ccc(CCO)cc12` had a melting point of 204 to 206 °C.

The compound `Nc1ncc(-c2ccc(F)cc2)nc1C(=O)Nc1cccnc1` yielded a melting point of 193 to 197 °C.

Take `N#Cc1cccc(Oc2ncccc2C(=O)NCc2ccc(-c3cccc(C(=O)O)c3)cc2F)c1`: the melting point was 200 to 202 °C.

Turning to `OCc1ccc2ccc3c4ccccc4ccc3c2c1`, the melting point is 187 to 189 °C.

With `COC(=O)c1cnccc1NC(=O)C(C)CSC(C)=O` (configuration not stated), the melting point fell in the range of 55 to 57 °C.

With `c1ccc(-c2ccon2)cc1`, the melting point was determined as 75 °C.

Consider `[O-][N+]1=C(c2ccccc2Cl)c2ccccc2C=CC1`, for which the melting point lay in the range of 115 to 116 °C.

As to `CNCC(O)c1ccc(F)cc1` (configuration not stated), the melting point is 77 to 78.8 °C.

`O=c1c2sc3ccccc3c2oc2cc(O)cc(O)c12` registered a melting point above 300 °C.

For `COc1cc2nc(N3CCN(C(=O)C4CCc5ccccc5O4)CC3)nc(N)c2cc1OC` (configuration not stated), the melting point is 165 to 167 °C.

Take `Cn1c(CC(=O)O)ccc1C(=O)c1ccc(F)cc1`: the melting point was in the range of 164 to 165 °C.

Compound `CCCCCCCCCCCCCCCCCCOCC(COC(c1ccccc1)(c1ccccc1)c1ccccc1)OC(=O)N(C)C` (configuration not stated) registered a melting point of 57.5 to 58 °C.
